Assay results from ChEMBL document CHEMBL4138123, “Design, synthesis and biological evaluation of novel pyrazolochalcones as potential modulators of PI3K/Akt/mTOR pathway and inducers of apoptosis in breast cancer cells” (Eur J Med Chem, 2017).

Tests used:
Type in all cases: functional
[1] = tested on: OVCAR-8; experiment: Cytotoxicity against human OVCAR8 cells assessed as growth inhibition after 48 hrs by sulforhodamine B assay; conditions: OVCAR-8, 48 h
[2] = tested on: SN12C; experiment: Cytotoxicity against human SN12C cells assessed as cell growth at 100 uM after 48 hrs by sulforhodamine B assay relative to control; conditions: read-out: Activity
[3] = tested on: CCRF-CEM; experiment: Cytotoxicity against human CCRF-CEM cells assessed as growth inhibition after 48 hrs by sulforhodamine B assay
[4] = tested on: HOP-62; experiment: Cytotoxicity against human HOP62 cells assessed as growth inhibition after 48 hrs by sulforhodamine B assay; conditions: HOP-62, 48 h
[5] = tested on: OVCAR-3; experiment: Cytotoxicity against human OVCAR3 cells assessed as growth inhibition after 48 hrs by sulforhodamine B assay; conditions: OVCAR-3, 48 h
[6] = tested on: MDA-MB-468; experiment: Cytotoxicity against human MDA-MB-468 cells assessed as cell growth at 0.01 uM after 48 hrs by sulforhodamine B assay relative to control; conditions: MDA-MB-468, 48 h, read-out: Activity
[7] = tested on: SR; experiment: Cytotoxicity against human SR cells assessed as cell growth at 0.1 uM after 48 hrs by sulforhodamine B assay relative to control; conditions: read-out: Activity
[8] = tested on: UO-31; experiment: Cytotoxicity against human UO31 cells assessed as cell growth at 10 uM after 48 hrs by sulforhodamine B assay relative to control; conditions: UO-31, 48 h, read-out: Activity
[9] = tested on: SR; experiment: Cytotoxicity against human SR cells assessed as cell growth at 10 uM after 48 hrs by sulforhodamine B assay relative to control; conditions: read-out: Activity
[10] = tested on: MOLT-4; experiment: Cytotoxicity against human MOLT4 cells assessed as cell growth at 0.01 uM after 48 hrs by sulforhodamine B assay relative to control; conditions: MOLT-4, 48 h, read-out: Activity
[11] = tested on: NCI-H522; experiment: Cytotoxicity against human NCI-H522 cells assessed as growth inhibition after 48 hrs by sulforhodamine B assay; conditions: NCI-H522, 48 h
[12] = tested on: MCF7; experiment: Cytotoxicity against human MCF7 cells assessed as growth inhibition after 48 hrs by sulforhodamine B assay; conditions: MCF7, 48 h
[13] = tested on: SR; experiment: Cytotoxicity against human SR cells assessed as cell growth at 1 uM after 48 hrs by sulforhodamine B assay relative to control; conditions: read-out: Activity
[14] = tested on: T47D; experiment: Cytotoxicity against human T47D cells assessed as cell growth at 0.01 uM after 48 hrs by sulforhodamine B assay relative to control; conditions: read-out: Activity
[15] = tested on: NCI-H322M; experiment: Cytotoxicity against human NCI-H322M cells assessed as cell growth at 0.1 uM after 48 hrs by sulforhodamine B assay relative to control; conditions: read-out: Activity
[16] = tested on: A498; experiment: Cytotoxicity against human A498 cells assessed as growth inhibition after 48 hrs by sulforhodamine B assay; conditions: A498, 48 h
[17] = tested on: A549; experiment: Cytotoxicity against human A549/ATCC cells assessed as growth inhibition after 48 hrs by sulforhodamine B assay; conditions: A549, 48 h
[18] = tested on: RPMI-8226; experiment: Cytotoxicity against human RPMI8226 cells assessed as cell growth at 100 uM after 48 hrs by sulforhodamine B assay relative to control; conditions: RPMI-8226, 48 h, read-out: Activity
[19] = tested on: SK-MEL-5; experiment: Cytotoxicity against human SK-MEL-5 cells assessed as cell growth at 1 uM after 48 hrs by sulforhodamine B assay relative to control; conditions: SK-MEL-5, 48 h, read-out: Activity
[20] = tested on: NCI-H322M; experiment: Cytotoxicity against human NCI-H322M cells assessed as growth inhibition after 48 hrs by sulforhodamine B assay; conditions: for CC50: read-out: LC50 (the source's name)
[21] = tested on: UO-31; experiment: Cytotoxicity against human UO31 cells assessed as cell growth at 100 uM after 48 hrs by sulforhodamine B assay relative to control; conditions: UO-31, 48 h, read-out: Activity
[22] = tested on: OVCAR-8; experiment: Cytotoxicity against human OVCAR8 cells assessed as cell growth at 0.1 uM after 48 hrs by sulforhodamine B assay relative to control; conditions: OVCAR-8, 48 h, read-out: Activity
[23] = tested on: HCC 2998; experiment: Cytotoxicity against human HCC2998 cells assessed as cell growth at 10 uM after 48 hrs by sulforhodamine B assay relative to control; conditions: HCC 2998, 48 h, read-out: Activity
[24] = tested on: SK-OV-3; experiment: Cytotoxicity against human SKOV3 cells assessed as growth inhibition after 48 hrs by sulforhodamine B assay; conditions: SK-OV-3, 48 h
[25] = tested on: SN12C; experiment: Cytotoxicity against human SN12C cells assessed as cell growth at 1 uM after 48 hrs by sulforhodamine B assay relative to control; conditions: read-out: Activity
[26] = tested on: RPMI-8226; experiment: Cytotoxicity against human RPMI8226 cells assessed as cell growth at 0.01 uM after 48 hrs by sulforhodamine B assay relative to control; conditions: RPMI-8226, 48 h, read-out: Activity
[27] = tested on: CCRF-CEM; experiment: Cytotoxicity against human CCRF-CEM cells assessed as cell growth at 100 uM after 48 hrs by sulforhodamine B assay relative to control; conditions: read-out: Activity
[28] = tested on: M14; experiment: Cytotoxicity against human M14 cells assessed as cell growth at 100 uM after 48 hrs by sulforhodamine B assay relative to control; conditions: M14, 48 h, read-out: Activity
[29] = tested on: MDA-MB-435; experiment: Cytotoxicity against human MDA-MB-435 cells assessed as cell growth at 10 uM after 48 hrs by sulforhodamine B assay relative to control; conditions: MDA-MB-435, 48 h, read-out: Activity
[30] = tested on: RXF 393; experiment: Cytotoxicity against human RXF393 cells assessed as growth inhibition after 48 hrs by sulforhodamine B assay; conditions: RXF 393, 48 h
[31] = tested on: NCI-H522; experiment: Cytotoxicity against human NCI-H522 cells assessed as cell growth at 0.1 uM after 48 hrs by sulforhodamine B assay relative to control; conditions: NCI-H522, 48 h, read-out: Activity
[32] = tested on: A549; experiment: Cytotoxicity against human A549/ATCC cells assessed as cell growth at 10 uM after 48 hrs by sulforhodamine B assay relative to control; conditions: A549, 48 h, read-out: Activity
[33] = tested on: SN12C; experiment: Cytotoxicity against human SN12C cells assessed as cell growth at 0.01 uM after 48 hrs by sulforhodamine B assay relative to control; conditions: read-out: Activity
[34] = tested on: NCI/ADR-RES; experiment: Cytotoxicity against human NCI/ADR-RES cells assessed as growth inhibition after 48 hrs by sulforhodamine B assay
[35] = tested on: SN12C; experiment: Cytotoxicity against human SN12C cells assessed as cell growth at 10 uM after 48 hrs by sulforhodamine B assay relative to control; conditions: read-out: Activity
[36] = tested on: K562; experiment: Cytotoxicity against human K562 cells assessed as cell growth at 10 uM after 48 hrs by sulforhodamine B assay relative to control; conditions: K562, 48 h, read-out: Activity
[37] = tested on: 786-0; experiment: Cytotoxicity against human 786-0 cells assessed as growth inhibition after 48 hrs by sulforhodamine B assay; conditions: 786-0, 48 h

COc1ccc(-c2cc(/C=C/C(=O)c3cc(OC)c(OC)c(OC)c3)[nH]n2)cc1OC
GI50 [1]: 2.55 µM
LC50 [1]: 42.1 µM
TGI [1]: 11.7 µM
growth at 100 µM [2]: -67%
GI50 [3]: 0.34 µM
LC50 (concentration killing 50% of cells) [3]: > 100 µM
TGI [3]: 3.13 µM
GI50 [4]: 1.45 µM
LC50 [4]: 8.85 µM
TGI [4]: 3.58 µM
GI50 [5]: 1.59 µM
LC50 [5]: 6.23 µM
TGI [5]: 3.15 µM
growth at 0.01 µM [6]: 98%
growth at 0.1 µM [7]: 73%
growth at 10 µM [8]: -95%
growth at 10 µM [9]: -10%
growth at 0.01 µM [10]: 99%
GI50 [11]: 1.33 µM
LC50 [11]: 5.39 µM
TGI [11]: 2.68 µM
GI50 [12]: 1.06 µM
TGI [12]: 2.5 µM
growth at 1 µM [13]: 5%
growth at 0.01 µM [14]: 91%
growth at 0.1 µM [15]: 88%
GI50 [16]: 1.46 µM
LC50 [16]: 22.3 µM
TGI [16]: 4.99 µM
GI50 [17]: 2.39 µM
LC50 (concentration giving 50% net cell kill) [17]: 62.4 µM
TGI [17]: 9.34 µM
growth at 100 µM [18]: -31%
growth at 1 µM [19]: 87%
GI50 [20]: 2.02 µM
TGI [20]: 6.03 µM
CC50 [20]: 25 µM
growth at 100 µM [21]: -93%
growth at 0.1 µM [22]: 100%
growth at 10 µM [23]: -93%
GI50 [24]: 5.47 µM
LC50 [24]: 45.5 µM
TGI [24]: 19 µM
growth at 1 µM [25]: 87%
growth at 0.01 µM [26]: 97%
growth at 100 µM [27]: -13%
growth at 100 µM [28]: -74%
growth at 10 µM [29]: -55%
GI50 [30]: 1.53 µM
LC50 (concentration killing 50% of cells) [30]: 6.51 µM
TGI [30]: 3.16 µM
growth at 0.1 µM [31]: 86%
growth at 10 µM [32]: -2%
growth at 0.01 µM [33]: 98%
GI50 [34]: 2.69 µM
LC50 [34]: > 100 µM
TGI [34]: 37 µM
growth at 10 µM [35]: -62%
growth at 10 µM [36]: -1%
GI50 [37]: 1.5 µM
LC50 [37]: 5.6 µM
TGI [37]: 2.9 µM

COc1ccc(C(=O)/C=C/c2cc(-c3cc(OC)c(OC)c(OC)c3)n[nH]2)cc1OC
LC50 [1]: 5.64 µM
TGI [1]: 2.73 µM
growth at 100 µM [2]: -86%
LC50 (concentration killing 50% of cells) [3]: > 100 µM
TGI [3]: 3.93 µM
LC50 [4]: 5.35 µM
TGI [4]: 2.77 µM
LC50 [5]: 5.97 µM
TGI [5]: 3.17 µM
growth at 0.01 µM [6]: 89%
growth at 0.1 µM [7]: 81%
growth at 10 µM [8]: -97%
growth at 10 µM [9]: 2%
growth at 0.01 µM [10]: 102%
LC50 [11]: 0.825 µM
TGI [11]: 0.39 µM
LC50 [12]: 5.72 µM
TGI [12]: 1.95 µM
growth at 1 µM [13]: 11%
growth at 0.01 µM [14]: 93%
growth at 0.1 µM [15]: 101%
LC50 [16]: 6 µM
TGI [16]: 2.98 µM
LC50 (concentration giving 50% net cell kill) [17]: 15.7 µM
TGI [17]: 4.59 µM
growth at 100 µM [18]: -41%
growth at 1 µM [19]: 91%
TGI [20]: 2.9 µM
CC50 [20]: 5.51 µM
growth at 100 µM [21]: -96%
growth at 0.1 µM [22]: 92%
growth at 10 µM [23]: -85%
LC50 [24]: 27.6 µM
TGI [24]: 7.82 µM
growth at 1 µM [25]: 80%
growth at 0.01 µM [26]: 94%
growth at 100 µM [27]: -15%
growth at 100 µM [28]: -68%
growth at 10 µM [29]: -92%
LC50 (concentration killing 50% of cells) [30]: 5.23 µM
TGI [30]: 2.66 µM
growth at 0.1 µM [31]: 91%
growth at 10 µM [32]: -43%
growth at 0.01 µM [33]: 99%
LC50 [34]: > 100 µM
TGI [34]: 15.7 µM
growth at 10 µM [35]: -82%
growth at 10 µM [36]: -13%
LC50 [37]: 5.82 µM
TGI [37]: 2.86 µM

COc1ccc(C(=O)/C=C/c2cc(-c3cc(OC)c(OC)c(OC)c3)n[nH]2)cc1
LC50 [1]: > 100 µM
TGI [1]: 8.26 µM
growth at 100 µM [2]: 7%
LC50 (concentration killing 50% of cells) [3]: > 100 µM
TGI [3]: 5.85 µM
LC50 [4]: 8.07 µM
TGI [4]: 3.77 µM
LC50 [5]: 7.27 µM
TGI [5]: 3.56 µM
growth at 0.01 µM [6]: 89%
growth at 0.1 µM [7]: 83%
growth at 10 µM [8]: -93%
growth at 10 µM [9]: 3%
growth at 0.01 µM [10]: 103%
LC50 [11]: 6.97 µM
TGI [11]: 3.2 µM
LC50 [12]: 7.61 µM
TGI [12]: 2.96 µM
growth at 1 µM [13]: 22%
growth at 0.01 µM [14]: 96%
growth at 0.1 µM [15]: 96%
TGI [16]: 3.94 µM
LC50 (concentration giving 50% net cell kill) [17]: > 100 µM
growth at 100 µM [18]: -34%
growth at 1 µM [19]: 93%
TGI [20]: 4.07 µM
growth at 100 µM [21]: -79%
growth at 0.1 µM [22]: 98%
growth at 10 µM [23]: -83%
LC50 [24]: > 100 µM
TGI [24]: 20.5 µM
growth at 1 µM [25]: 91%
growth at 0.01 µM [26]: 98%
growth at 100 µM [27]: -16%
growth at 100 µM [28]: -7%
growth at 10 µM [29]: -30%
LC50 (concentration killing 50% of cells) [30]: 5.17 µM
TGI [30]: 2.56 µM
growth at 0.1 µM [31]: 87%
growth at 10 µM [32]: -15%
growth at 0.01 µM [33]: 99%
LC50 [34]: > 100 µM
TGI [34]: 9.85 µM
growth at 10 µM [35]: -69%
growth at 10 µM [36]: -17%
TGI [37]: 4.13 µM
